In patent US20090143279A1 (priority 2007, published 2009):
Read-outs that look alike come from different tables or passages of the source.

Tests used:
reactive oxygen species = format: cell-based, mouse; details: for ROS (composite Z-score): normalized score vs mock-treated (DMSO) wells
cytochrome c = format: cell-based, mouse; details: for cyt c (composite Z-score): normalized score vs mock-treated (DMSO) wells
nuOXPHOS transcripts = format: cell-based, mouse; details: for nucOX (composite Z-score): normalized score vs mock-treated (DMSO) wells
[1] = tested on: cellular dehydrogenase activity; details: for MTT (composite Z-score): normalized score vs mock-treated (DMSO) wells
C2C12 myotubes = details: for Viability (composite Z-score): normalized score vs mock-treated (DMSO) wells
[2] = tested on: mitochondrial membrane potential; format: cell-based, mouse; details: for ΔΨm (composite Z-score): normalized score vs mock-treated (DMSO) wells
OXPHOS gene expression = format: cell-based, mouse; details: for GE-HTS (composite Z-score): normalized score vs mock-treated (DMSO) wells
mtOXPHOS transcripts = format: cell-based, mouse; details: for mitoOX (composite Z-score): normalized score vs mock-treated (DMSO) wells
[3] = composite Z-score vs mock-treated (DMSO) wells, Conc 20 μM
[4] = normalized composite Z-score vs mock-treated (DMSO) wells, Conc 20 μM
[5] = Table 7, C2C12 myotubes, 48 h, composite Z-score
[6] = composite Z-score vs DMSO, Conc 20 μM
[7] = composite Z-score vs mock-treated (DMSO) wells, concentration of each compound in μM
[8] = composite Z-score vs DMSO wells, Conc 20 μM
[9] = composite Z-score vs DMSO, Conc 9.58 μM

Chain of cytochrome c (P62897 whole entry): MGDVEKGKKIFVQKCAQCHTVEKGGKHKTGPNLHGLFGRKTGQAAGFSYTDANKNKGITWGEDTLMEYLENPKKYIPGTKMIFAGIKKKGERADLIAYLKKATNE

Compound: C[N+](C)(C)CC(=O)O [betaine]
- ROS (reactive oxygen species): −0.348
- cyt c (cytochrome c): −0.998
- nucOX (nuOXPHOS transcripts): 0.354
- MTT [1]: 1.036
- Viability (C2C12 myotubes): 0.548
- ΔΨm [2]: 0.345
- GE-HTS (OXPHOS gene expression): 0.478
- mitoOX (mtOXPHOS transcripts): 0.604

Compound: COc1cc2c(cc1OC)-c1c(oc3c4c(ccc3c1=O)OC(C(C)C)C4)CO2 (centres unmarked) [dehydrodihydrorotenone, reference compound]
- ROS (reactive oxygen species; [3]): 0.051
- cyt c (cytochrome c; [3]): −0.211
- nucOX (nuOXPHOS transcripts; [3]): −0.290
- MTT [1, 3]: −3.034
- Viability (C2C12 myotubes; [3]): −0.172
- ΔΨm [2, 3]: 0.125
- GE-HTS (OXPHOS gene expression; [3]): −0.001
- mitoOX (mtOXPHOS transcripts; [3]): 0.535

Compound: Cc1c(O)c(O)cc2c1CC=C1[C@@]2(C)CC[C@@]2(C)[C@@H]3C[C@](C)(C(=O)O)CC[C@]3(C)CC[C@]12C [Dihydrocelastrol, reference compound]
- ROS (reactive oxygen species; [4]): −3.065
- cyt c (cytochrome c; [4]): −4.583
- nucOXPHOS Z (nuOXPHOS transcripts; [5]): 2.18
- nucOX (nuOXPHOS transcripts; [4]): 2.183
- MTT [1, 4]: −5.524
- Viability (C2C12 myotubes; [4]): −4.120
- ΔΨm [2, 4]: −3.514
- GE-HTS (OXPHOS gene expression; [4]): −0.295
- mito-OXPHOS Z (mtOXPHOS transcripts; [5]): −5.22
- mitoOX (mtOXPHOS transcripts; [4]): −5.217

Compound: CC(=O)c1ccc(O)c(CC=C(C)C)c1 [3-prenyl-4-hydroxyacetophenone]
- ROS (reactive oxygen species; [6]): 2.418
- cyt c (cytochrome c; [6]): 0.220
- nucOX (nuOXPHOS transcripts; [6]): 0.477
- MTT [1, 6]: −1.066
- Viability (C2C12 myotubes; [6]): −0.696
- ΔΨm [2, 6]: −0.010
- GE-HTS (OXPHOS gene expression; [6]): 0.607
- mitoOX (mtOXPHOS transcripts; [6]): 0.804

Compound: COc1cccc(-c2cc(=O)c3cc(OC)ccc3o2)c1 [6,3′-dimethoxyflavone]
- ROS (reactive oxygen species; [3]): −0.882
- cyt c (cytochrome c; [3]): 0.245
- nucOX (nuOXPHOS transcripts; [3]): 0.087
- MTT [1, 3]: −1.534
- Viability (C2C12 myotubes; [3]): 0.413
- ΔΨm [2, 3]: 1.915
- GE-HTS (OXPHOS gene expression; [3]): 0.072
- mitoOX (mtOXPHOS transcripts; [3]): −0.021

Compound: CC(C)c1c(O)ccc2c1CCC1C(C)(C(=O)O)CCCC21C (centres unmarked) [totarol-19-carboxylic acid]
- ROS (reactive oxygen species; [7]): −0.209
- cyt c (cytochrome c; [7]): −1.116
- nucOX (nuOXPHOS transcripts; [7]): −0.494
- MTT [1, 7]: −1.701
- Viability (C2C12 myotubes; [7]): −0.506
- ΔΨm [2, 7]: −0.008
- GE-HTS (OXPHOS gene expression; [7]): −0.399
- mitoOX (mtOXPHOS transcripts; [7]): −0.073

Compound: CC(=O)Oc1ccccc1C(=O)Oc1ccccc1C(=O)O [diplosalsalate]
- ROS (composite Z-score) (reactive oxygen species; Conc 20 μM): 0.306
- cyt c (composite Z-score) (cytochrome c; Conc 20 μM): 0.787
- nucOX (composite Z-score) (nuOXPHOS transcripts; Conc 20 μM): −0.994
- MTT (composite Z-score) ([1]; Conc 20 μM): −0.860
- Viability (composite Z-score) (C2C12 myotubes; Conc 20 μM): −0.204
- ΔΨm (composite Z-score) ([2]; Conc 20 μM): 0.008
- GE-HTS (composite Z-score) (OXPHOS gene expression; Conc 20 μM): −1.001
- mitoOX (composite Z-score) (mtOXPHOS transcripts; Conc 20 μM): −0.766

Compound: 3beta-chloroandrostanone
- ROS (reactive oxygen species; [3]): −0.077
- cyt c (cytochrome c; [3]): 1.021
- nucOX (nuOXPHOS transcripts; [3]): −1.192
- MTT [1, 3]: −1.203
- Viability (C2C12 myotubes; [3]): −0.424
- ΔΨm [2, 3]: −0.860
- GE-HTS (OXPHOS gene expression; [3]): −1.190
- mitoOX (mtOXPHOS transcripts; [3]): −0.907

Compound: CC(=O)OCC(=O)[C@@]1(O)CC[C@H]2[C@@H]3C[C@H](C)C4=CC(=O)C=C[C@]4(C)[C@H]3[C@@H](O)C[C@@]21C [6alpha-methylprednisolone acetate]
- ROS (composite Z-score) (reactive oxygen species; Conc 20 μM): 0.321
- cyt c (composite Z-score) (cytochrome c; Conc 20 μM): −0.364
- nucOX (composite Z-score) (nuOXPHOS transcripts; Conc 20 μM): −0.518
- MTT (composite Z-score) ([1]; Conc 20 μM): −1.192
- Viability (composite Z-score) (C2C12 myotubes; Conc 20 μM): −0.480
- ΔΨm (composite Z-score) ([2]; Conc 20 μM): −0.462
- GE-HTS (composite Z-score) (OXPHOS gene expression; Conc 20 μM): −0.130
- mitoOX (composite Z-score) (mtOXPHOS transcripts; Conc 20 μM): 0.750

Compound: CC(=O)O[C@H](CC(=O)[O-])C[N+](C)(C)C [acetylcarnitine]
- ROS (reactive oxygen species; [8]): 0.476
- cyt c (cytochrome c; [8]): −0.192
- nucOX (nuOXPHOS transcripts; [8]): −1.015
- MTT [1, 8]: −1.275
- Viability (C2C12 myotubes; [8]): −0.980
- ΔΨm [2, 8]: −0.930
- GE-HTS (OXPHOS gene expression; [8]): −1.051
- mitoOX (mtOXPHOS transcripts; [8]): −0.943

Compound: COCCc1ccc(OCC(O)CNC(C)C)cc1 (centres unmarked) [metoprolol, reference compound]
- ROS (reactive oxygen species; [9]): 0.253
- ROS (reactive oxygen species; [6]): 0.652
- cyt c (cytochrome c; [9]): 0.496
- cyt c (cytochrome c; [6]): 0.596
- nucOX (nuOXPHOS transcripts; [9]): −0.430
- nucOX (nuOXPHOS transcripts; [6]): 0.546
- MTT [1, 9]: −1.894
- MTT [1, 6]: −1.660
- Viability (C2C12 myotubes; [9]): 0.437
- Viability (C2C12 myotubes; [6]): 0.326
- ΔΨm [2, 9]: −0.997
- ΔΨm [2, 6]: −0.515
- GE-HTS (OXPHOS gene expression; [9]): −0.423
- GE-HTS (OXPHOS gene expression; [6]): 0.450
- mitoOX (mtOXPHOS transcripts; [9]): −0.342
- mitoOX (mtOXPHOS transcripts; [6]): 0.241

Compound: CC[C@@H](C(=O)[C@@H](C)[C@@H](O)[C@H](C)CCc1ccc(C)c(O)c1C(=O)O)[C@H]1O[C@](CC)([C@H]2CC[C@](O)(CC)[C@H](C)O2)C[C@@H]1C [lasalocid, reference compound]
- ROS (reactive oxygen species; [6]): −2.993
- cyt c (cytochrome c; [6]): −1.690
- nucOX (nuOXPHOS transcripts; [6]): 0.274
- MTT [1, 6]: −1.771
- Viability (C2C12 myotubes; [6]): −1.090
- ΔΨm [2, 6]: −1.178
- GE-HTS (OXPHOS gene expression; [6]): −1.524
- mitoOX (mtOXPHOS transcripts; [6]): −4.908

Compound: C[C@]12CC[C@@H]3c4ccc(O)cc4CC[C@H]3[C@@H]1CC[C@@H]2OC(=O)CCC1CCCC1 [estradiol cypionate]
- ROS (reactive oxygen species; [8]): −0.010
- cyt c (cytochrome c; [8]): 0.408
- nucOX (nuOXPHOS transcripts; [8]): 0.072
- MTT [1, 8]: −2.428
- Viability (C2C12 myotubes; [8]): 0.219
- ΔΨm [2, 8]: −0.489
- GE-HTS (OXPHOS gene expression; [8]): −0.124
- mitoOX (mtOXPHOS transcripts; [8]): −0.418

Compound: CC(=O)O[C@@H]1C=C[C@]2(C)C(C[C@@H](OC(C)=O)[C@]3(C)C4=CC(=O)O[C@H](c5ccoc5)[C@@]4(C)CCC23)C1(C)C (some centres unmarked) [deoxygedunol acetate]
- ROS (reactive oxygen species; [3]): 1.251
- cyt c (cytochrome c; [3]): 0.095
- nucOX (nuOXPHOS transcripts; [3]): −0.850
- MTT [1, 3]: −1.930
- Viability (C2C12 myotubes; [3]): −0.767
- ΔΨm [2, 3]: 0.137
- GE-HTS (OXPHOS gene expression; [3]): −0.815
- mitoOX (mtOXPHOS transcripts; [3]): −0.639
